According to patent publication US20170073659A1, “NOVEL LYSYL TRNA SYNTHETASE FRAGMENT AND MICROVESICLES COMPRISING SAME” (Medicinal Bioconvergence Research Center, priority 2014, published 2017):
Values belong to the compound of their own block, whether it stands above or below them. Residues, ends and D or L forms follow the SMILES beside them. *: point of attachment. Cbz = O=C(OCc1ccccc1)*; CH2F = FC*

Columns and labels:
HCT116 cells [1] = test: KRS secretion test (TCA precipitation, western blot); assay type: cell-based; conditions: for KRS secretion after caspase inhibitor treatment: HCT116 cells, serum starvation media, inhibitor 14 uM, 12 hr, anti-KRS antibody; for secretion of KRS variant compared with WT: myc-tagged variant transfected into HCT116 cells, serum starvation 12 hr, anti-myc antibody
Procedure: HCT116 cells were incubated in RPMI media containing 10% FBS (Hyclone), and were grown to 60% confluency on 60-mm dish. The cells were washed twice with PBS, incubated in serum-free RPMI media, and treated with 10 ng/ml TNF-α for 12 hr. The supernatant of the cell culture liquid was cautiously collected, followed by centrifugation at 500 g for 10 min. The supernatant thus obtained was again centrifuged at 10,000 g for 30 min, thereby removing membrane organelles. Then, 12% TCA was added to the supernatant, followed by culture at 4° C. for 12 hr, so the supernatant was subjected to precipitation treatment. After the precipitation treatment, the supernatant was centrifuged at 18,000 g for 15 min, and the upper part was then discarded and the remaining pellets were neutralized with 100 mM HEPES (pH 8.0), and then 5× sample buffer was added to perform separation using SDS-PAGE. The products separated by SDS-PAGE were western blotted using anti-KRS antibody.

KRS and syntenin-1 [2] = test: Bimolecular fluorescence complementation (BiFC) assay; assay type: cell-based; conditions: KRS-VN173 and syntenin-1-VC155 transfected cells, serum starvation 4 hr
Procedure: KRS-VN173 plasmid and syntenin-1-VC155 plasmid were all transduced in HCT116 cells, and the cells were incubated in starvation condition or serum-free condition for 4 hr. The HCT116 cells were located on 9-mm coverslip, fixed using 4% paraformaldehyde, and washed shortly with cool PBS. The cells were incubated in 5% BSA blocking buffer for 1 hr, and DAPI stained for 10 min. The cells were washed six times with cool PBS five times for 5 min for each time, and then mounted on slide glass. Thereafter, the samples were observed using confocal laser scanning microscope A1 (Nikon).

KRS and syntenin-1 [3] = test: KRS-syntenin-1 interaction by immunoprecipitation and western blot; assay type: cell-based; conditions: for binding of KRS variant with syntenin-1 compared with WT: myc-tagged variant transfected into cells, immunoprecipitation and western blot
Procedure: For immunoprecipitation, the cells were lysed at 4° C. in 50 mM HEPES (pH 7.4) buffer containing 150 mM NaCl, 0.5% NP-40, 2 mM EDTA, 5% glycerol and protease inhibiting agent (Calbiochem, San Diego, Calif., USA). Protein extracts were cultured together with protein-specific antibodies thereagainst with stirring at 4° C. In addition, protein G agarose was added. 4 hr after the addition of the protein G agarose, precipitate samples were obtained by centrifugation. The precipitate samples were washed three times for 5 min using cool lysis buffer. The precipitates were separated by SDS-PAGE.

HCT116 cells [4] = test: KRS exosome secretion (exosomes isolated at 100,000 g, western blot); assay type: cell-based; conditions: for exosome secretion of KRS variant compared with WT: myc-tagged variant transfected into HCT116 cells, serum starvation 12 hr
Procedure: HCT116 cells were incubated for a predetermined period of time in each treatment condition (especially, serum-starvation condition), and then the media were separated and consecutively centrifuged. Centrifugation was conducted three times at 500 g (10 min), 10,000 g (30 min), and 100,000 g (90 min) to form microvesicle pellets. The amount of microvesicle proteins was determined by using Bradford assay.

Cytokine activity of KRS = conditions: WT compared with N-terminus truncated KRS
RAW264.7 cells [5] = test: TNF-alpha secretion ELISA assay; assay type: cell-based; conditions: RAW 264.7 cells; 100 nM KRS proteins or KRS exosomes 0.05, 0.5, 5 ug
Procedure: RAW264.7 cells (2×10^4) were incubated in 24-well plate containing DMEM supplemented with 10% FBS and 1% antibiotic for 12 hr, and starved in serum starvation media for 2 hr. 100 nM KRS protein (WT, ▴N12 each) and KRS exosomes (0.05, 0.5, 5 ug) were added, followed by treatment for 6 hr. Thereafter, cell media were collected by centrifugation at 3,000 g for 5 min. TNF-alpha secreted from the cells was detected using the TNF-alpha ELISA kit (Pharmingen, BD Science) according to the manufacturer's protocol.

RAW264.7 cells [6] = test: Wound healing assay; assay type: cell-based; conditions: RAW 264.7 monolayer; 100 nM KRS proteins or KRS exosomes 0.05, 0.5, 5 ug; 12 hr
Procedure: RAW264.7 cells were dispensed on the coverslip, and grown to >95% confluency. Subsequently, the RAW 264.7 monolayer was scratched to create wounds, and then the wounds were treated with 100 nM KRS proteins (WT, ▴N12) or KRS exosomes (0.05, 0.5, 5 ug) in their respective concentrations, followed by incubation for 12 hr. The cell morphology of cells was observed using microscopy.

RAW264.7 cells [7] = test: Luminex screening assays (bead-based multiplex kits); assay type: cell-based; conditions: 100 nM KRS proteins or KRS exosomes 5 ug/ml; 12 hr
Procedure: RAW264.7 cells were incubated in 12-well plate using DMEM media containing 10% FBS and 1% antibiotic for 12 hr, and starved in serum starvation media for 2 hr. KRS proteins (WT, ▴N12 each) and KRS exosomes (5 ug) in different amounts were respectively added to the media. After 12 hr, conditioned media were collected, and spun down through centrifugation at 3,000 g for 10 min. For multiplex assay, premixed beads for TNF-alpha, mCRG-2, IL-6, mIL-lbeta, mIL-12, mIL-10, MMP9, INF-gamma, mMIP3a, and CXCL10 were purchased from R&D Science, and used according to the manufacturer's protocol. Each sample were analyzed by BioRad Bioplex 200 system and software.

HCT116 cells [8] = test: KRS cleavage in cells (GFP-KRS, western blot with anti-GFP antibody); assay type: cell-based
Procedure: The cells were lysed with 50 mM Tris-HCl (pH 7.4) buffer containing 150 mM NaCl, 10 mM NaF, 12 mM beta-glycerophosphate, 1 mM EDTA, 1% NP-40, 10% glycerol, and protease inhibiting agent. Then, the supernatant was dissolved in SDS sample buffer, followed by separation using SDS-PAGE. For immunoblotting of endogenous KRS, anti-KRS antibody was used. Antibodies against Hsp90, syntenin-1, GFP, myc, caspase-3, -6, -8, -9, while syntenin-1 were purchased from Santa Cruz, and antibodies against alix were purchased from Cell Signaling. The anti-KRS antibody was manufactured by ordinary procedures in which KRS protein (Genbank Accession No. NP_005539.1) represented by SEQ ID NO: 2 was injected into New Zealand white rabbits to induce immune response and their antibodies were obtained.

BiFC fluorescence (KRS-syntenin binding) (KRS and syntenin-1 [2]): not observed
Compound: Z-VAD-IETD [caspase-8 inhibitor]
KRS secretion after caspase inhibitor treatment (HCT116 cells [1]): inhibited KRS secretion
binding between KRS and syntenin increased by starvation (KRS and syntenin-1 [3]; serum starvation medium with or without caspase-8 inhibiting agent, IP of syntenin-1, anti-KRS western blot): reduced

Compound: ▴c5: deletion mutant KRS with truncated C-terminus, 1-592 a.a of SEQ ID NO: 2
exosome secretion of KRS variant compared with WT (HCT116 cells [4]): reduced
secretion of KRS variant compared with WT (HCT116 cells [1]): less
binding of KRS variant with syntenin-1 compared with WT (KRS and syntenin-1 [3]): significantly deteriorated

Compound: KRS WT: full-length human lysyl tRNA synthetase (1-597), SEQ ID NO: 2
cytokine activity (Cytokine activity of KRS): identical
TNF-alpha secretion from macrophages (RAW264.7 cells [5]): increasing TNF-alpha secretion
migration of macrophages (wound-healing assay) (RAW264.7 cells [6]): increased
secretion of IL-6 from macrophages (RAW264.7 cells [7]): induced
secretion of MMP9 from macrophages (RAW264.7 cells [7]): induced
secretion of TNF-alpha from macrophages (luminex) (RAW264.7 cells [7]): induced
secretion of mCRG-2 from macrophages (RAW264.7 cells [7]): induced

BiFC fluorescence (KRS-syntenin binding) (KRS and syntenin-1 [2]): not observed
Compound: D12A mutant: variant in which Asp, 12th amino acid of KRS WT, is replaced with Ala; not cleaved by caspase-8
exosome secretion of KRS variant compared with WT (HCT116 cells [4]): significantly reduced
cleavage of KRS variant compared with WT (HCT116 cells [8]; GFP-KRS variant overexpressed in HCT116 cells, serum starvation 1 hr): reduced
secretion of KRS variant compared with WT (HCT116 cells [1]): reduced
binding of KRS variant with syntenin-1 compared with WT (KRS and syntenin-1 [3]): less

Compound: ▴N12: KRS fragment 13-597 a.a., the peptide of SEQ ID NO: 1, first 12 N-terminal amino acids deleted
cytokine activity (Cytokine activity of KRS): identical
TNF-alpha secretion from macrophages (RAW264.7 cells [5]): increasing TNF-alpha secretion
migration of macrophages (wound-healing assay) (RAW264.7 cells [6]): increased
secretion of IL-6 from macrophages (RAW264.7 cells [7]): induced
secretion of MMP9 from macrophages (RAW264.7 cells [7]): induced
secretion of TNF-alpha from macrophages (luminex) (RAW264.7 cells [7]): induced
secretion of mCRG-2 from macrophages (RAW264.7 cells [7]): induced

Compound: COC(=O)C[C@H](NC(=O)[C@H](C)NC(=O)[C@@H](NC(=O)OCc1ccccc1)C(C)C)C(=O)CF [pan-caspase inhibitor, Z-VAD-FMK] (Cbz-Val-Ala-Asp(OMe)-CH2F)
KRS cleavage after caspase inhibitor treatment (HCT116 cells [8]; GFP-KRS overexpressed cells, serum starvation media, Z-VAD-FMK 14 uM, 1 hr): reduced
KRS secretion after caspase inhibitor treatment (HCT116 cells [1]): reduced

Compound: si-KRS: si-RNA against KRS from Invitrogen: GGGAAGACCCAUACCCACACAAGUU, AACUUGUGUGGGUAUGGGUCUUCCC (chemistry not given here)
KRS proteins existing in the exosome (HCT116 cells [4]; exosomes purified from si-RNA treated cells, 48 hr then serum starvation 12 hr, vs si-con): reduced

Compound: Z-VAD-DQMD [caspase-3 inhibitor]
KRS secretion after caspase inhibitor treatment (HCT116 cells [1]): only caspase-8 inhibitor inhibited KRS secretion

Compound: Z-VAD-VEID [caspase-6 inhibitor]
KRS secretion after caspase inhibitor treatment (HCT116 cells [1]): only caspase-8 inhibitor inhibited KRS secretion
